According to ChEMBL document CHEMBL1201862, “PubChem BioAssay data set” (2004):
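Dose response: 5 concentrations. Exposure: 48 h. Format: 96-well plates. Endpoint: linear interpolation; highest concentration if not reached. Abbreviation: GI50, concentration required for 50% inhibition of growth.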 Activity calls are given as the source filed them. Rule as the data show it: active = GI50 up to about 1.1 µM and inactive = higher.

Assays:
Experiment in all cases: growth of human tumour cells (NCI), 48 h
CAKI-1 = system: CAKI-1
SNB-19 = system: SNB-19
PC-3 = system: PC-3
IGROV-1 = system: IGROV-1
HCC 2998 = system: HCC 2998
HOP-92 = system: HOP-92
U-251 = system: U-251
MDA-MB-231 = system: MDA-MB-231
OVCAR-3 = system: OVCAR-3
SW-620 = system: SW-620
OVCAR-4 = system: OVCAR-4
EKVX = system: EKVX
HL-60 = system: HL-60
M14 = system: M14
HOP-62 = system: HOP-62
OVCAR-8 = system: OVCAR-8
UACC-62 = system: UACC-62
NCI-H23 = system: NCI-H23
HCT-116 = system: HCT-116
SK-MEL-5 = system: SK-MEL-5
SNB-75 = system: SNB-75
SF-268 = system: SF-268
786-0 = system: 786-0
DU-145 = system: DU-145
HT-29 = system: HT-29
NCI-H226 = system: NCI-H226
KM12 = system: KM12
SR = system: SR
COLO 205 = system: COLO 205
CCRF-CEM = system: CCRF-CEM
Hs-578T = system: Hs-578T
T47D = system: T47D
MDA-N = system: MDA-N
TK-10 = system: TK-10
SK-MEL-28 = system: SK-MEL-28
MDA-MB-435 = system: MDA-MB-435
SF-295 = system: SF-295
UO-31 = system: UO-31
NCI/ADR-RES = system: NCI/ADR-RES
ACHN = system: ACHN
A549 = system: A549
SF-539 = system: SF-539
HCT-15 = system: HCT-15
SK-MEL-2 = system: SK-MEL-2
MOLT-4 = system: MOLT-4
OVCAR-5 = system: OVCAR-5
SN12C = system: SN12C
SK-OV-3 = system: SK-OV-3
NCI-H522 = system: NCI-H522
MCF7 = system: MCF7
K562 = system: K562
NCI-H460 = system: NCI-H460
RXF 393 = system: RXF 393
RPMI-8226 = system: RPMI-8226
LOX IMVI = system: LOX IMVI
UACC-257 = system: UACC-257

With `Cn1[nH]nn/c1=N\N=C\c1ccccc1` the GI50 (CAKI-1) was > 10 µM (inactive), the GI50 (SNB-19) was > 10 µM (inactive) and the GI50 (PC-3) was > 10 µM (inactive). For the same compound, the GI50 (IGROV-1) was > 10 µM (inactive), the GI50 (HCC 2998) was > 10 µM (inactive) and the GI50 (HOP-92) was > 10 µM (inactive). For the same compound, the GI50 (U-251) was > 10 µM (inactive), the GI50 (MDA-MB-231) was > 10 µM (inactive) and the GI50 (OVCAR-3) was > 10 µM (inactive). For the same compound, the GI50 (SW-620) was > 10 µM (inactive), the GI50 (OVCAR-4) was > 10 µM (inactive) and the GI50 (EKVX) was 2.9 µM (inactive). For the same compound, the GI50 (HL-60) was > 10 µM (inactive), the GI50 (M14) was > 10 µM (inactive) and the GI50 (HOP-62) was > 10 µM (inactive). For the same compound, the GI50 (OVCAR-8) was > 10 µM (inactive), the GI50 (UACC-62) was > 10 µM (inactive) and the GI50 (NCI-H23) was > 10 µM (inactive). The GI50 (HCT-116) was > 10 µM (inactive), the GI50 (SK-MEL-5) was > 10 µM (inactive) and the GI50 (SNB-75) was > 10 µM (inactive). The GI50 (SF-268) was > 10 µM (inactive), the GI50 (786-0) was > 10 µM (inactive) and the GI50 (DU-145) was > 10 µM (inactive). The GI50 (HT-29) was > 10 µM (inactive), the GI50 (NCI-H226) was > 10 µM (inactive) and the GI50 (KM12) was > 10 µM (inactive). The GI50 (SR) was > 10 µM (inactive), the GI50 (COLO 205) was > 10 µM (inactive) and the GI50 (CCRF-CEM) was > 10 µM (inactive). For the same compound, the GI50 (Hs-578T) was > 10 µM (inactive), the GI50 (T47D) was > 10 µM (inactive) and the GI50 (MDA-N) was > 10 µM (inactive). The GI50 (TK-10) was > 10 µM (inactive), the GI50 (SK-MEL-28) was > 10 µM (inactive) and the GI50 (MDA-MB-435) was > 10 µM (inactive). For the same compound, the GI50 (SF-295) was > 10 µM (inactive), the GI50 (UO-31) was > 10 µM (inactive) and the GI50 (NCI/ADR-RES) was > 10 µM (inactive). The GI50 (ACHN) was > 10 µM (inactive), the GI50 (A549) was > 10 µM (inactive) and the GI50 (SF-539) was > 10 µM (inactive). For the same compound, the GI50 (HCT-15) was greater than 10 µM, the GI50 (SK-MEL-2) was > 10 µM (inactive) and the GI50 (MOLT-4) was > 10 µM (inactive). The GI50 (OVCAR-5) was > 10 µM (inactive), the GI50 (SN12C) was > 10 µM (inactive) and the GI50 (SK-OV-3) was > 10 µM (inactive). The GI50 (NCI-H522) was > 10 µM (inactive), the GI50 (MCF7) was > 10 µM (inactive) and the GI50 (K562) was > 10 µM (inactive). For the same compound, the GI50 (NCI-H460) was > 10 µM (inactive), the GI50 (RXF 393) was > 10 µM (inactive) and the GI50 (RPMI-8226) was > 10 µM (inactive). The GI50 (LOX IMVI) was > 10 µM (inactive) and the GI50 (UACC-257) was > 10 µM (inactive).
